27 compounds from US20090004185A1, “AMINO-SUBSTITUTED QUINAZOLINE DERIVATIVES AS INHIBITORS OF BETA-CATENIN/TCF-4 PATHWAY AND CANCER TREATMENT AGENTS” (WYETH, priority 2007, published 2009) can be followed below.

By IC50 is commonly meant the concentration needed to halve the response being measured.

One assay has as its system β-catenin/Tcf-4. As to the kind of experiment: cells. It counts as cell-based. To be noted: 24 hours of incubation with compound, ratio Firefly/Renilla luciferase. Put shortly:
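SW480-derived lines with integrated reporters (Tcf-4-driven firefly luciferase; SV40 firefly as specificity control; SV40 Renilla for cell number/toxicity), treated 24 hours with titrated compounds, final 0.316% DMSO. Dual-luciferase read-out; firefly/Renilla ratio as % of control, duplicate plates, IC50 (nM) from curve fit.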

A further assay has as its system SV40-Luc. As to the kind of experiment: SV40-Luc control luciferase reporter assay, SV 5A8 cell line (SV40-Luc and SV40-R-Luc), control for non-specific inhibitors. It counts as cell-based, human. The settings on record: SV 5A8 cells derived from SW480, 24 hours of incubation with compound, ratio Firefly/Renilla luciferase. Put shortly:
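SW480-derived lines with integrated reporters: SV 5A8 (SV40 firefly plus SV40 Renilla), Tcf 33.13 and Tcf 22C11 (Tcf-4 firefly plus SV40 Renilla). Cells seeded 1×10^4/well, compounds added 20-24 h later at titrated concentrations (final DMSO 0.316%) for 24 h. Firefly/Renilla ratio, as % of control, gave IC50 (nM).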
Background: In a reporter assay the amount or activity of a reporter protein is the signal.

Setting [1] is: Homo sapiens, SW480, 24 h, Tcf 33.13 cells derived from SW480.
[2] abbreviates: Homo sapiens, Tcf22C11, 24 h, Tcf 22C11 cells derived from SW480.
Where [3] appears, read: Tcf 22C11 cells derived from SW480.
Where [4] appears, read: Tcf 33.13 cells derived from SW480.

`O=C(Nc1ccc(CNc2nc(NC3CCC3)nc3ccc(C(F)(F)F)cc23)cc1)c1ccc(Cl)cc1` [Example 166, 4-chloro-N-[4-({[2-(cyclobutylamino)-6-(trifluoromethyl)quinazolin-4-yl]amino}methyl)phenyl]benzamide]: the IC50 in the assay on β-catenin/Tcf-4 (setting [1]) is over 9510 nM; with β-catenin/Tcf-4 (setting [2]), over 9510 nM; with SV40-Luc (Homo sapiens, SV5A8, 24 h), over 9510 nM.
In the case of `CNc1nc(NCc2ccc(NC(=O)c3ccc(Cl)cc3)cc2)c2cc(C(F)(F)F)ccc2n1` [Example 167, 4-chloro-N-[4-({[2-(methylamino)-6-(trifluoromethyl)quinazolin-4-yl]amino}methyl)phenyl]benzamide], the IC50 with β-catenin/Tcf-4 (setting [1]) was 751 nM; in the assay on β-catenin/Tcf-4 (setting [2]), 919 nM; in the assay on SV40-Luc (Homo sapiens, SV5A8, 24 h), over 5140 nM.
For `O=C(Nc1ccc(CNc2nc(NCc3ccco3)nc3ccc(C(F)(F)F)cc23)cc1)c1ccc(Cl)cc1` [Example 168, 4-chloro-N-[4-({[2-[(2-furylmethyl)amino]-6-(trifluoromethyl)quinazolin-4-yl]amino}methyl)phenyl]benzamide], in that order: 1280 nM, 2810 nM and over 9060 nM.
In the case of `CN(C)c1ccc(-c2ccc3nc(N(C)C)nc(NCc4ccc(NC(=O)c5ccc(F)cc5)cc4)c3c2)nc1` [Example 169], the figures for the concentration for half-maximal inhibition (IC50) in the assay with β-catenin/Tcf-4 (setting [3]), with β-catenin/Tcf-4 (setting [4]) and with SV40-Luc were 229 nM, 453 nM and over 2330 nM, respectively.
For `CN(C)c1cccc(-c2ccc3nc(N(C)C)nc(NCc4ccc(C(=O)Nc5ccc(F)cc5)cc4)c3c2)c1` [Example 170], in that order: 692 nM, 806 nM and over 2340 nM.
For `CN(C)c1nc(NCc2ccc(NC(=O)c3ccc(F)cc3)cc2)c2cc(/C=C\c3ccccc3)ccc2n1` [Example 171], in that order: 2940 nM, 4280 nM and over 19300 nM.
On the same counts, the results for `C=Cc1cccc(-c2ccc3nc(N(C)C)nc(NCc4ccc(C(=O)Nc5ccc(F)cc5)cc4)c3c2)c1` [Example 172] are 397 nM, 308 nM and over 2830 nM.
Take `CN(C)c1nc(NCc2ccc(C(=O)Nc3ccc(F)cc3)cc2)c2cc(-c3ccc(/C=C/c4ccccc4)cc3)ccc2n1` [Example 173]: the IC50 in the assay with β-catenin/Tcf-4 (setting [3]) was over 4510 nM; in the assay with β-catenin/Tcf-4 (setting [4]), 4480 nM; with SV40-Luc, over 18000 nM.
For `C/C=C/c1ccc2nc(N(C)C)nc(NCc3ccc(C(=O)Nc4ccc(F)cc4)cc3)c2c1` [Example 174, E-4-((2-dimethylamino)-6-(prop-1-enyl)quinazolin-4-ylamino)methyl-N-(4-fluorophenyl)benzamide], in that order: 436 nM, 359 nM and over 5080 nM.
For `CCCC/C=C/c1ccc2nc(N(C)C)nc(NCc3ccc(C(=O)Nc4ccc(F)cc4)cc3)c2c1` [Example 175, E-(4-((2-dimethylamino)-6-(hex-1-enyl)quinazolin-4-ylamino)methyl)-N-(4-fluorophenyl)benzamide], in that order: 712 nM, 537 nM and over 4680 nM.
For `CN(C)c1nc(NCc2ccc(C(=O)Nc3ccc(F)cc3)cc2)c2cc(/C=C/C(C)(C)C)ccc2n1` [Example 176], in that order: 556 nM, 425 nM and over 4680 nM.
In the case of `Cc1ccc2c(NCc3ccc(NC(=O)Nc4ccc(Cl)cc4)cc3)nc(N(C)C)nc2c1` [Example 177, N-(4-chlorophenyl)-N′-[4-({[2-(dimethylamino)-7-methylquinazolin-4-yl]amino}methyl)phenyl]urea], the IC50 in the assay on β-catenin/Tcf-4 (setting [1]) was over 5420 nM; in the assay on β-catenin/Tcf-4 (setting [2]) it was over 5420 nM; with SV40-Luc (Homo sapiens, SV5A8, 24 h), over 10800 nM.
Turning to `Cc1ccc2nc(N(C)C)nc(NCc3ccc(NC(=O)Nc4ccc(Cl)cc4)cc3)c2c1` [Example 178, N-(4-chlorophenyl)-N′-[4-({[2-(dimethylamino)-6-methylquinazolin-4-yl]amino}methyl)phenyl]urea], the IC50 with β-catenin/Tcf-4 (setting [1]) was 245 nM; in the assay with β-catenin/Tcf-4 (setting [2]), 266 nM; with SV40-Luc (Homo sapiens, SV5A8, 24 h), over 2710 nM.
For `Cc1ccc2c(NCc3ccc(NC(=O)Nc4ccc(Br)cc4)cc3)nc(N(C)C)nc2c1` [Example 179, N-(4-bromophenyl)-N′-[4-({[2-(dimethylamino)-7-methylquinazolin-4-yl]amino}methyl)phenyl]urea], in that order: 924 nM, 538 nM and over 4950 nM.
Turning to `Cc1ccc2c(NCc3ccc(NC(=O)Nc4ccc(F)cc4)cc3)nc(N(C)C)nc2c1` [Example 180, N-[4-({[2-(dimethylamino)-7-methylquinazolin-4-yl]amino}methyl)phenyl]-N′-(4-fluorophenyl)urea], the IC50 with β-catenin/Tcf-4 (setting [1]) is 2020 nM; in the assay with β-catenin/Tcf-4 (setting [2]) it was 1460 nM; with SV40-Luc (Homo sapiens, SV5A8, 24 h) it was over 5610 nM.
For `Cc1ccc2nc(N(C)C)nc(NCc3ccc(NC(=O)Nc4ccc(F)cc4)cc3)c2c1` [Example 181, N-[4-({[2-(dimethylamino)-6-methylquinazolin-4-yl]amino}methyl)phenyl]-N′-(4-fluorophenyl)urea], in that order: 549 nM, 719 nM and over 2810 nM.
On the same counts, the results for `CN(C)c1nc(NCc2ccc(NC(=O)Nc3ccc(F)cc3)cc2)c2ccccc2n1` [Example 182, N-[4-({[2-(dimethylamino)quinazolin-4-yl]amino}methyl)phenyl]-N′-(4-fluorophenyl)urea] are 4320 nM, 4280 nM and over 11600 nM.
Take `CNc1nc(NCc2ccc(NC(=O)c3ccc(F)c(F)c3)cc2)c2c(C)cccc2n1` [Example 189, 3,4-difluoro-N-[4-({[5-methyl-2-(methylamino)quinazolin-4-yl]amino}methyl)phenyl]benzamide]: the half-maximal inhibitory concentration (IC50) in the assay with β-catenin/Tcf-4 (setting [1]) is 1140 nM; in the assay with β-catenin/Tcf-4 (setting [2]), 1830 nM; in the assay on SV40-Luc (Homo sapiens, SV5A8, 24 h), over 4570 nM.
For `Cc1ccc2c(NCc3ccc(NC(=O)c4ccc(Cl)cc4)cc3)nc(N(C)C)nc2c1` [Example 196, 4-chloro-N-[4-({[2-(dimethylamino)-7-methyl-quinazolin-4-yl]amino}methyl)phenyl]benzamide], in that order: 227 nM, 223 nM and over 1400 nM.
On the same counts, the results for `Cc1ccc2c(NCc3ccc(NC(=O)c4ccc(Cl)cc4)cc3)nc(NCCc3ccccn3)nc2c1` [Example 197, 4-chloro-N-{4-[({7-methyl-2-[(2-pyridin-2-ylethyl)amino]quinazolin-4-yl}amino)methyl]phenyl}benzamide] are 382 nM, 376 nM and over 2390 nM.
`Cc1ccc2c(NCc3ccc(NC(=O)c4ccc(F)cc4)cc3)nc(N3CCN(c4ccccn4)CC3)nc2c1` [Example 200, 4-fluoro-N-[4-({[7-methyl-2-(4-pyridin-2-ylpiperazin-1-yl)quinazolin-4-yl]amino}methyl)phenyl]benzamide]: the IC50 is 491 nM in the assay on β-catenin/Tcf-4 (setting [1]); 804 nM with β-catenin/Tcf-4 (setting [2]); over 4560 nM in the assay on SV40-Luc (Homo sapiens, SV5A8, 24 h).
On the same counts, the results for `Cc1ccc2c(NCc3ccc(NC(=O)c4ccc(F)cc4)cc3)nc(N(C)CCCN(C)C)nc2c1` [Example 201, N-{4-[({2-[[3-(dimethylamino)propyl](methyl)amino]-7-methylquinazolin-4-yl}amino)methyl]phenyl}-4-fluorobenzamide] are 664 nM, 1310 nM and over 4990 nM.
On the same counts, the results for `Cc1ccc2c(NCc3ccc(NC(=O)c4ccc(F)cc4)cc3)nc(N(C)Cc3ccccc3)nc2c1` [Example 203, N-{4-[({2-[benzyl(methyl)amino]-7-methylquinazolin-4-yl}amino)methyl]phenyl}-4-fluorobenzamide] are 579 nM, 590 nM and over 9890 nM.
For `COC[C@@H]1CCCN1c1nc(NCc2ccc(NC(=O)c3ccc(F)cc3)cc2)c2ccc(C)cc2n1` [Example 205, 4-fluoro-N-{4-[({2-[(2S)-2-(methoxymethyl)pyrrolidin-1-yl]-7-methylquinazolin-4-yl}amino)methyl]phenyl}benzamide], in that order: 3150 nM, over 2500 nM and over 10000 nM.
For the compound `CCN(C)c1nc(NCc2ccc(NC(=O)c3ccc(F)cc3)cc2)c2ccc(C)cc2n1` [Example 210, N-{4-[({2-[ethyl(methyl)amino]-7-methylquinazolin-4-yl}amino)methyl]phenyl}-4-fluorobenzamide], the IC50 was 825 nM with β-catenin/Tcf-4 (setting [1]); 1380 nM with β-catenin/Tcf-4 (setting [2]); over 5640 nM in the assay with SV40-Luc (Homo sapiens, SV5A8, 24 h).
For `CCN(CC)c1nc(NCc2ccc(NC(=O)c3ccc(F)cc3)cc2)c2ccc(C)cc2n1` [Example 211, N-[4-({[2-(diethylamino)-7-methylquinazolin-4-yl]amino}methyl)phenyl]-4-fluorobenzamide], in that order: 396 nM, 558 nM and over 2730 nM.
On the same counts, the results for `Cc1ccc2c(NCc3ccc(NC(=O)c4ccc(F)cc4)cc3)nc(N3CCN(c4ccccc4)CC3)nc2c1` [Example 212, 4-fluoro-N-[4-({[7-methyl-2-(4-phenylpiperazin-1-yl)quinazolin-4-yl]amino}methyl)phenyl]benzamide] are 2680 nM, 3100 nM and over 12900 nM.
